Results on 22 compounds are retold here after US11312727B1, “Macrocyclic flu endonuclease inhibitors” (Janssen BioPharma, Inc., priority 2018, dated 2022).

As a reminder, the EC50 is the concentration at which the effect is half-maximal. By CC50 is commonly meant the concentration at which the toxic effect on the cells reaches its halfway point. Read a high CC50 as better tolerance by the cells.

In data set [1] the test system is Influenza strain A549 A/WSN/33 (H1N1). As to the kind of experiment: microbe, parasite or virus in culture. The following applies: Influenza A virus, A549, 20 h, A549 cells, influenza A/WSN/33 (H1N1), 20 hours incubation; read-out: A549_A(H1N1) EC50. In kind it is cell-based.
A further data set can be described thus: in vitro. The following applies: human, CC50, uninfected A549 cells, CellTiter-Glo. In general terms: In ATP-based viability assays light output follows the ATP content of the culture.

For the compound `O=C1c2c(O)c(=O)ccn2N2CN1C/C=C\CCc1ncccc1[C@@H]2c1ccccc1` (single isomer, unassigned) [Compound 24B, (18*S,*Z)-12-hydroxy-18-phenyl-5,6,9,18-tetrahydro-10,17-methanodipyrido[1,2-b:2′,3′-k][1,2,5]triazacyclotridecine-11,13-dione], the EC50 in data set [1] was determined as 1.53 µM. In “in vitro”, the CC50 is more than 1 µM.
The corresponding values for `CC[C@@H]1/C=C/COc2c(ccc(F)c2F)[C@@H](c2ccccc2)N2CN1C(=O)c1c(O)c(=O)ccn12` [Compound 101AB, (9R,18R,E)-9-ethyl-3,4-difluoro-12-hydroxy-18-phenyl-6,9-dihydro-18H-10,17-methanobenzo[b]pyrido[1,2-f][1]oxa[5,6,9]triazacyclotridecine-11,13-dione] are 0.0013 µM and more than 0.2 µM.
Turning to `O=C1c2c(O)c(=O)ccn2N2CN1C[C@H]1C[C@@H]1COc1ccccc1[C@@H]2c1ccccc1` (single isomer, unassigned) [Compound 80AA, (1a*S,8*S,17a*S)-14-hydroxy-8-phenyl-1a,2,17,17a-tetrahydro-1H,8H-9,16-methanobenzo[b]cyclopropa[k]pyrido[1,2-f][1]oxa[5,6,9]triazacyclotridecine-13,15-dione], the concentration giving a half-maximal response (EC50) in data set [1] was 0.167 µM. In the data set “in vitro”, the half-maximal cytotoxic concentration (CC50) was more than 1 µM.
In the case of `O=C1CCN2CN(C(c3ccccc3)c3ccccc3CN1)n1ccc(=O)c(O)c1C2=O` (centres unmarked) [Compound 18, 12-hydroxy-18-phenyl-5,8,9,18-tetrahydro-10,17-methanobenzo[k]pyrido[1,2-b][1,2,5,9]tetraazacyclotridecine-7,11,13(6H)-trione], the EC50 in data set [1] worked out at 7.91 µM. Further, in “in vitro”, the CC50 was more than 200 µM.
Consider `C[C@H]1N2C/C=C/COc3c(F)cccc3[C@H](c3ccccc3)N1n1ccc(=O)c(O)c1C2=O` (single isomer, unassigned) [Compound 91B, (18*S,19*S,E)-4-fluoro-12-hydroxy-19-methyl-18-phenyl-6,9-dihydro-18H-10,17-methanobenzo[b]pyrido[1,2-f][1]oxa[5,6,9]triazacyclotridecine-11,13-dione], for which the EC50 in data set [1] was more than 0.5 µM. In addition, the CC50 in the data set “in vitro” is more than 1 µM.
In the case of `O=C1c2c(O)c(=O)ccn2N2CN1CCCCCOc1cccc3c1C2c1ccccc1SC3` (centres unmarked) [Compound 48], the concentration giving a half-maximal response (EC50) in data set [1] was 0.032 µM. Besides, the CC50 in the data set “in vitro” is more than 2 µM.
In the case of `CC(C)[C@@H]1/C=C/COc2c(ccc(F)c2F)[C@H](c2ccccc2)N2CN1C(=O)c1c(O)c(=O)ccn12` (single isomer, unassigned) [Compound 128BA, (9*R,18*S,*E)-3,4-difluoro-12-hydroxy-9-isopropyl-18-phenyl-6,9-dihydro-18H-10,17-methanobenzo[b]pyrido[1,2-f][1]oxa[5,6,9]triazacyclotridecine-11,13-dione], the EC50 in data set [1] was more than 0.1 µM. Also, in “in vitro”, the cytotoxic concentration (CC50) is more than 0.2 µM.
Regarding `CC(C)[C@@H]1/C=C/COc2ccccc2[C@@H](c2ccccc2)N2CN1C(=O)c1c(O)c(=O)ccn12` (single isomer, unassigned) [Compound 132A, (9*R,18*R,*E)-12-hydroxy-9-isopropyl-18-phenyl-9,10-dihydro-6H,18H-10,17-methanobenzo[b]pyrido[1,2-f][1]oxa[5,6]diazacyclotridecine-11,13-dione], in data set [1], the EC50 is more than 0.1 µM. This compound returned a CC50 in the data set “in vitro” of more than 0.2 µM.
As to `CS(=O)(=O)c1ccccc1[C@@H]1c2cccc(F)c2OC/C=C\CN2CN1n1ccc(=O)c(O)c1C2=O` (single isomer, unassigned) [Compound 122, (18*S,*Z)-4-fluoro-12-hydroxy-18-(2-(methylsulfonyl)phenyl)-6,9-dihydro-18H-10,17-methanobenzo[b]pyrido[1,2-f][1]oxa[5,6,9]triazacyclotridecine-11,13-dione], the EC50 in data set [1] is more than 0.1 µM. The same compound displayed a 50% cytotoxic concentration (CC50) in the data set “in vitro” of more than 0.2 µM.
On to `C[C@@H]1N2C/C=C/COc3c(F)cccc3[C@@H](c3ccccc3)N1n1ccc(=O)c(O)c1C2=O` (single isomer, unassigned) [Compound 91A, (18*R,19*R,E)-4-fluoro-12-hydroxy-19-methyl-18-phenyl-6,9-dihydro-18H-10,17-methanobenzo[b]pyrido[1,2-f][1]oxa[5,6,9]triazacyclotridecine-11,13-dione], for which the EC50 in data set [1] was determined as 0.003 µM. The same compound had a CC50 in “in vitro” of more than 1 µM.
The corresponding values for `Cc1c(F)ccc2c1OC/C=C\CN1CN([C@@H]2c2ccccc2)n2ccc(=O)c(O)c2C1=O` (single isomer, unassigned) [Compound 133A, (18*R,Z)-3-fluoro-12-hydroxy-4-methyl-18-phenyl-6,9-dihydro-18H-10,17-methanobenzo[b]pyrido[1,2-f][1]oxa[5,6,9]triazacyclotridecine-11,13-dione] are 0.0041 µM and more than 0.2 µM.
For `O=C1c2c(O)c(=O)ccn2N2CN1CCCCOc1ccc(F)cc1[C@@H]2c1cccc(F)c1` (single isomer, unassigned) [Compound 32B, (18*S)-2-fluoro-18-(3-fluorophenyl)-12-hydroxy-6,7,8,9-tetrahydro-18H-10,17-methanobenzo[b]pyrido[1,2-f][1]oxa[5,6,9]triazacyclotridecine-11,13-dione], the EC50 in data set [1] came to 0.025 µM. Moreover, the CC50 in “in vitro” was more than 2 µM.
On the same counts, the results for `O=C1c2c(O)c(=O)ccn2N2CN1C/C=C\COc1ccccc1[C@@H]2c1ccccc1F` (single isomer, unassigned) [Compound 36A, (18*R,Z)-18-(2-fluorophenyl)-12-hydroxy-6,9-dihydro-18H-10,17-methanobenzo[b]pyrido[1,2-f][1]oxa[5,6,9]triazacyclotridecine-11,13-dione] are 0.015 µM and more than 2 µM.
`COc1ccccc1[C@H]1c2cccc(F)c2OC/C=C\CN2CN1n1ccc(=O)c(O)c1C2=O` (single isomer, unassigned) [Compound 117B, (18*S,*Z)-4-fluoro-12-hydroxy-18-(2-methoxyphenyl)-6,9-dihydro-18H-10,17-methanobenzo[b]pyrido[1,2-f][1]oxa[5,6,9]triazacyclotridecine-11,13-dione]: in data set [1], the EC50 is more than 0.1 µM. Also, the CC50 in the data set “in vitro” was more than 0.2 µM.
Turning to `O=C1c2c(O)c(=O)ccn2N2CN1C1(/C=C/COc3cccc4c3[C@@H]2c2ccccc2SC4)CCC1` (single isomer, unassigned) [Compound 147A, (17a′*R,*E)-12′-hydroxy-2′,17a′-dihydro-6′H-spiro[cyclobutane-1,9′-[3,4](epiprop[1]en[1]yl[3]ylidene)[10,17]methanobenzo[6,7]thiepino[4,5-c]pyrido[1,2-f][1]oxa[5,6,9]triazacyclotridecine]-11′,13′-dione], in data set [1], the EC50 was more than 5 µM. For the same compound, the CC50 in “in vitro” is more than 10 µM.
The corresponding values for `CC[C@@H]1CCCOc2c(ccc(F)c2F)[C@H](c2ccccc2)N2CN1C(=O)c1c(O)c(=O)ccn12` (single isomer, unassigned) [Compound 164B, (9*R,18*S)-9-ethyl-3,4-difluoro-12-hydroxy-18-phenyl-6,7,8,9-tetrahydro-18H-10,17-methanobenzo[b]pyrido[1,2-f][1]oxa[5,6,9]triazacyclotridecine-11,13-dione] are 0.0024 µM and more than 0.1 µM.
Turning to `O=C1c2c(O)c(=O)ccn2N2CN1C1(/C=C/COc3ccccc3[C@H]2c2ccccc2)CC1` [Compound 79B, (18′R,E)-12′-hydroxy-18′-phenyl-6′H,18′H-spiro[cyclopropane-1,9′-[10,17]methanobenzo[b]pyrido[1,2-f][1]oxa[5,6,9]triazacyclotridecine]-11′,13′-dione], the EC50 in data set [1] was 0.006 µM. The compound also returned a CC50 in the data set “in vitro” of more than 1 µM.
Consider `O=C1c2c(O)c(=O)ccn2N2CN1C/C=C\CCc1cnccc1[C@@H]2c1ccccc1` (single isomer, unassigned) [Compound 56B, (18*S,*Z)-12-hydroxy-18-phenyl-5,6,9,18-tetrahydro-10,17-methanodipyrido[1,2-b:3′,4′-k][1,2,5]triazacyclotridecine-11,13-dione], for which the EC50 in data set [1] is 0.161 µM. In the data set “in vitro”, this compound yielded a CC50 of more than 2 µM.
With `CC[C@@H]1/C=C/COc2ccccc2[C@@H](c2ccccc2)N2CN1C(=O)c1c(O)c(=O)ccn12` [Compound 39BA, (9R,18R,E)-9-ethyl-12-hydroxy-18-phenyl-6,9-dihydro-18H-10,17-methanobenzo[b]pyrido[1,2-f][1]oxa[5,6,9]triazacyclotridecine-11,13-dione], the concentration for a half-maximal effect (EC50) in data set [1] came to 0.006 µM. The compound further yielded a CC50 in “in vitro” of more than 0.2 µM.
As to `C[C@H]1/C=C\COc2cc(F)c(F)c3c2C(c2ccccc2SC3)N2CN1C(=O)c1c(O)c(=O)ccn12` (single isomer, unassigned) [Compound 162D, (13*S,21a*S,*Z)-24,25-difluoro-16-hydroxy-13-methyl-6,10,13,21a-tetrahydro-7,8-(epiprop[1]en[1]yl[3]ylidene)-14,21-methanobenzo[6,7]thiepino[4,5-c]pyrido[1,2-f][1]oxa[5,6,9]triazacyclotridecine-15,17-dione], in data set [1], the EC50 was 0.00051 µM. The compound also registered a CC50 in “in vitro” of more than 0.1 µM.
`COC[C@@H]1N2C/C=C\COc3ccccc3[C@@H](c3ccccc3)N1n1ccc(=O)c(O)c1C2=O` (single isomer, unassigned) [Compound 109A, (18*R,19*R,*Z)-12-hydroxy-19-(methoxymethyl)-18-phenyl-6,9-dihydro-18H-10,17-methanobenzo[b]pyrido[1,2-f][1]oxa[5,6,9]triazacyclotridecine-11,13-dione]: the EC50 in data set [1] turned out to be 0.0066 µM. This compound also yielded a CC50 in “in vitro” of more than 0.2 µM.
The corresponding values for `C[C@@H]1/C=C/COc2c(ccc(F)c2F)[C@H](c2ccccc2)N2CN1C(=O)c1c(O)c(=O)ccn12` (single isomer, unassigned) [Compound 148BA, (9*R,18*S,*E)-3,4-difluoro-12-hydroxy-9-methyl-18-phenyl-6,9-dihydro-18H-10,17-methanobenzo[b]pyrido[1,2-f][1]oxa[5,6,9]triazacyclotridecine-11,13-dione] are 2.6 µM and more than 10 µM.
